Data on five molecules can be found in patent publication US20240018153A1, “BENZENESULFONAMIDE DERIVATIVES AND USES THEREOF” (2692372 ONTARIO, INC., priority 2020, published 2024).

Format in all cases: biochemical
One experiment addresses FGFR4 (Homo sapiens (Human), UniProt P22455). Put plainly: HTRF KinEASE-TK kinase assay, FGFR4. The note with it: for IC50: dose response; for remaining activity at 1 µM: read-out: % FGFR4 Remaining activity vs DMSO (1 μM, 3 h); for remaining activity at 10 µM: read-out: % FGFR4 Remaining activity vs DMSO (10 μM, 3 h). Here is the method: (§1) Kinase activity was monitored using a HTRF® KinEASE-TK kit from Cisbio (62TK0PEC). […] FGFR-4 was purchased from Promega. 0.333 ng/ul FGFR4 (5.12 nM) was preincubated in the absence or presence of inhibitor at room temperature for 3 hours. Reaction with substrate was then initiated by adding biotinylated substrate and ATP. […] The reaction was terminated by adding 31.25 nM SA-XL665 and 100 fold diluted europium labelled antibody (Eu-Ab), diluted in 1× detection buffer that contained EDTA. After 60 min of incubation, the fluorescence emission was measured at 620 nm and 665 nm. The ratio of Em 665 nm to Em 620 nm was proportional to the amount of substrate phosphorylated by the kinase.

In a further experiment the target is BTK (Homo sapiens (Human), UniProt Q06187). In words: HTRF KinEASE-TK kinase assay, BTK. The note with it: 3 h preincubation; for remaining activity at 1 µM: 1 μM compound, read-out: % BTK Remaining activity vs DMSO (1 μM, 3 h); for remaining activity at 10 µM: 10 μM compound, read-out: % BTK Remaining activity vs DMSO (10 μM, 3 h). The procedure: Kinase activity was monitored using a HTRF® KinEASE-TK kit from Cisbio (62TK0PEC). For BTK, the 1× kinase buffer was supplemented with 10 mM MnCl2, 5 mM MgCl2, 1 uM ATPγS, 1 mM TCEP and 100 fold diluted Supplementary Enzyme Buffer. BTK was purchased from Promega. […] Reaction with substrate was then initiated by adding biotinylated substrate and ATP and the reaction was allowed to proceed for 45 min. […] After 60 min of incubation, the fluorescence emission was measured at 620 nm and 665 nm. The ratio of Em 665 nm to Em 620 nm was proportional to the amount of substrate phosphorylated by the kinase.
BTK, sequence (Q06187 whole entry): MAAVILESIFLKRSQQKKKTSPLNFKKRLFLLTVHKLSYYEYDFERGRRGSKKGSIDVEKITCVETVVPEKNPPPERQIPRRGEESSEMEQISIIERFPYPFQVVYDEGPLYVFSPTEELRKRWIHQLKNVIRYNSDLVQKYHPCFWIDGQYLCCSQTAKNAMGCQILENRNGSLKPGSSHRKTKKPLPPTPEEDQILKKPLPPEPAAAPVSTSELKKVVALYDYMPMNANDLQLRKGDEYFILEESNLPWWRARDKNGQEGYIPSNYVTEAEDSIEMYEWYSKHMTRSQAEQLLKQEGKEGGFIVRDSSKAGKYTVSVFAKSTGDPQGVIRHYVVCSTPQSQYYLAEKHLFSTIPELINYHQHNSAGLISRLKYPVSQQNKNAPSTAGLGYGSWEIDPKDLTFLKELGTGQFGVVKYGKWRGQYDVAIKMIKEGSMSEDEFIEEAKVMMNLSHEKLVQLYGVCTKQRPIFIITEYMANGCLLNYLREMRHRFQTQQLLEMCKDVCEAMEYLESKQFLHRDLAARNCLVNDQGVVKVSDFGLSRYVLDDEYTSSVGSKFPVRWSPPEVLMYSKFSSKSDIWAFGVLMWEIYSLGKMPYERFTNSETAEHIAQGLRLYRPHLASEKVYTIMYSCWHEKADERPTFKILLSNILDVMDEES
On the technique in general: In TR-FRET formats the signal depends on donor and acceptor labels being close together.

Another experiment has as its target BMX (Homo sapiens (Human), UniProt P51813). Put plainly: HTRF KinEASE-TK kinase assay, BMX. The settings on record: 3 h preincubation; for remaining activity at 1 µM: 1 uM compound; for remaining activity at 10 µM: 10 uM compound. The procedure:
as §1, with “BMX” for “FGFR-4”, “BMX (3.03” for “FGFR4 (5.12”, “The reaction” for “Reaction”, “Reaction” for “The reaction”

The target of a further experiment is JAK3 (Homo sapiens (Human), UniProt P52333). In words: HTRF KinEASE-TK kinase assay, JAK3. The note with it: for remaining activity at 1 µM: read-out: % JAK3 Remaining activity vs DMSO (1 μM, 3 h); for remaining activity at 10 µM: read-out: % JAK3 Remaining activity vs DMSO (10 μM, 3 h). The procedure:
as §1, with “JAK-3” for “FGFR-4”, “0.0133” for “0.333”, “JAK3 (0.21” for “FGFR4 (5.12”

Another experiment concerns the target EGFR (Homo sapiens (Human), UniProt P00533). In words: HTRF KinEASE-TK kinase assay, EGFR. The settings on record: 3 h preincubation; for remaining activity at 1 µM: 1 μM compound, read-out: % EGFR Remaining activity vs DMSO (1 μM, 3 h); for remaining activity at 10 µM: 10 μM compound, read-out: % EGFR Remaining activity vs DMSO (10 μM, 3 h). The procedure:
Kinase activity was monitored using a HTRF® KinEASE-TK kit from Cisbio (62TK0PEC). The buffer used was 1× kinase buffer supplemented with 2 mM MnCl2, 5 mM MgCl2, 1 mM TCEP and 100× diluted Supplementary Enzyme Buffer. EGFR was purchased from Promega. […] Reaction with substrate was then initiated by adding biotinylated substrate and ATP. […] After 60 min of incubation, the fluorescence emission was measured at 620 nm and 665 nm. The ratio of Em 665 nm to Em 620 nm was proportional to the amount of substrate phosphorylated by the kinase.
For initial screening, enzymes were pre incubated with compounds at 2 different concentrations (1 and 10 uM final) and 0.5% DMSO.

Each structure is given as a SMILES string.

EGFR, sequence (P00533 25-1210): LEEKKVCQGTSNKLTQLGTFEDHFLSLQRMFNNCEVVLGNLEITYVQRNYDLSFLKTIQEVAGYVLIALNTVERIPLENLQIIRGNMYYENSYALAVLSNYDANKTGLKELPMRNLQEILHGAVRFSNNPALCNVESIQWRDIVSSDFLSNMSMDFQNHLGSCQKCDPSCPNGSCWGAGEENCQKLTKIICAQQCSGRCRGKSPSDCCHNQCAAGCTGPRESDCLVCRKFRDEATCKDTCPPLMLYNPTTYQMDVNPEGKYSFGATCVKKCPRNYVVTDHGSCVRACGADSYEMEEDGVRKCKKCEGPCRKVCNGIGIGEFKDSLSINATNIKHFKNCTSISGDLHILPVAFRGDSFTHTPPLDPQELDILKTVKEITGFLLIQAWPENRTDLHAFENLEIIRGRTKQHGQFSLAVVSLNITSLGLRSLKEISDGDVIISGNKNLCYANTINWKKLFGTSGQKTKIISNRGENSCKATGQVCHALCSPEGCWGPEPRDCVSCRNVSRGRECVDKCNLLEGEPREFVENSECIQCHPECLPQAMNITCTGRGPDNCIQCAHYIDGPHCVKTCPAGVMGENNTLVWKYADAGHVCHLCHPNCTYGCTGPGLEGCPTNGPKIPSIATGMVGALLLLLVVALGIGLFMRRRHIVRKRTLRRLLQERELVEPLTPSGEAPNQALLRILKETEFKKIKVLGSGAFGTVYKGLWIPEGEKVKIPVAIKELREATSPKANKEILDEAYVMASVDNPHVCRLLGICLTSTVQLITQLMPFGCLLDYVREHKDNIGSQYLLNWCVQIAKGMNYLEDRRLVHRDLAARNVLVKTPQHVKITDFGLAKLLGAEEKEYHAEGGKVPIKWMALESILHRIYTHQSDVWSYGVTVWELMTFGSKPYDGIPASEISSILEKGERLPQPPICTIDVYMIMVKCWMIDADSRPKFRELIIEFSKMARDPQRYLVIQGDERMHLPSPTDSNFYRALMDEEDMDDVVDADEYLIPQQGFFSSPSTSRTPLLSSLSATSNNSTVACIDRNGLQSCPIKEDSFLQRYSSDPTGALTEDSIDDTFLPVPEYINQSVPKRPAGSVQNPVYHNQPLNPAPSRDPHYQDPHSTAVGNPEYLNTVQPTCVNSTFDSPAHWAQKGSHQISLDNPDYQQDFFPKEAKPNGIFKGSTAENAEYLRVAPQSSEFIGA
JAK3, sequence (P52333 781-1124): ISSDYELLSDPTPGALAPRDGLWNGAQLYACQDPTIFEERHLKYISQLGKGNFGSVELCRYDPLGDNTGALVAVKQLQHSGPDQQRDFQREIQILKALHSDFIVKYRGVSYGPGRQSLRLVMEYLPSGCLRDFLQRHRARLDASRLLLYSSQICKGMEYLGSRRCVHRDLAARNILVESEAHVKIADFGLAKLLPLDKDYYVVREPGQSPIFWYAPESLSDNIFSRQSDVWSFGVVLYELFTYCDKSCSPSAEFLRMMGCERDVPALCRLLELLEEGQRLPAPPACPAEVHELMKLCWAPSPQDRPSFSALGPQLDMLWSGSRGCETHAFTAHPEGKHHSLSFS
FGFR4, sequence (P22455 22-802): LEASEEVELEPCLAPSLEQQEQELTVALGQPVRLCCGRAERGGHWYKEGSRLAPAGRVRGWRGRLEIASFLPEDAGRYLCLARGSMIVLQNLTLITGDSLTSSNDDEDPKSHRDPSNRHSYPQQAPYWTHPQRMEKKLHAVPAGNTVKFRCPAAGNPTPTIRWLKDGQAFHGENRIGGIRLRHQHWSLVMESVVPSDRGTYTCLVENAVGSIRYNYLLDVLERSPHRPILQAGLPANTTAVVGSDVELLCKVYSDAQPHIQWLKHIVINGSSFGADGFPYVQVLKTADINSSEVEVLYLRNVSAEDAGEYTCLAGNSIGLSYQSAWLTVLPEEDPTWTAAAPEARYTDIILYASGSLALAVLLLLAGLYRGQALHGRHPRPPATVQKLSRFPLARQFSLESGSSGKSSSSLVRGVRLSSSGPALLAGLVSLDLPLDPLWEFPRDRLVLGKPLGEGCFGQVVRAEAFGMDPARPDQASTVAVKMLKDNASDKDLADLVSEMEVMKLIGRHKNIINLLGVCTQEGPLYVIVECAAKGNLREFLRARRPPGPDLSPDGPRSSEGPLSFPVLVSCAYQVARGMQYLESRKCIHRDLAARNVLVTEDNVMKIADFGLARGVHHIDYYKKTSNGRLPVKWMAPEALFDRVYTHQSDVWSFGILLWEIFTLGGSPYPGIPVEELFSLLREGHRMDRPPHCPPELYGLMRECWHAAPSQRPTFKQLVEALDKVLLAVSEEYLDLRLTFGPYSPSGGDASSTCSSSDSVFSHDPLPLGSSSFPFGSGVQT
BMX, sequence (P51813 whole entry): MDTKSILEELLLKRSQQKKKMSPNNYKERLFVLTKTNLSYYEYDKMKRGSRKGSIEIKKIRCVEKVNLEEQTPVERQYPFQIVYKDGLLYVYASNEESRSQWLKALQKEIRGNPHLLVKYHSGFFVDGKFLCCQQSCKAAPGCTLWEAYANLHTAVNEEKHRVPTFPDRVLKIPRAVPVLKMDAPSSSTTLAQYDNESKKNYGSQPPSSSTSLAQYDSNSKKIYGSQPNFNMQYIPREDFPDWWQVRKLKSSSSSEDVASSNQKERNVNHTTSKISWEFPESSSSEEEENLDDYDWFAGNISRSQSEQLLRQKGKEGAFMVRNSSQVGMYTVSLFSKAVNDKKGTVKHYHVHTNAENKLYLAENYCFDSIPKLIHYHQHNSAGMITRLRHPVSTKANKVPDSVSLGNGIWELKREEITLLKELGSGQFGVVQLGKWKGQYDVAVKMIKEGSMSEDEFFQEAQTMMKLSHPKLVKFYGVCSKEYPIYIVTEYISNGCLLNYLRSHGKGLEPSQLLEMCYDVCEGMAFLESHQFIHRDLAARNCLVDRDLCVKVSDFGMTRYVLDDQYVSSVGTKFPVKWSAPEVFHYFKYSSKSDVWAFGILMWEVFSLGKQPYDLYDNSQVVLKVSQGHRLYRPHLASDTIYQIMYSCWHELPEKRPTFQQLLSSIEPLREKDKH

For the molecule `COCCOc1ccc(Nc2ncc(F)c(Nc3cccc(NC(=O)c4c(F)c(F)c(F)c(F)c4[S@+](C)[O-])c3)n2)cc1` (racemic) [Compound I-62, 2,3,4,5-tetrafluoro-N-(3-((5-fluoro-2-((4-(2-methoxyethoxy)phenyl)amino)pyrimidin-4-yl)amino)phenyl)-6-(methylsulfinyl)benzamide], the IC50 is < 1000 nM at FGFR4 and < 1000 nM on BTK (dose response, read-out: BTK Inhibition IC50).

As to `O=S(=O)(Nc1cc2c(Nc3ccc(F)c(Cl)c3)ncnc2cc1O[C@H]1CCOC1)c1c(F)c(F)c(F)c(F)c1C(F)(F)F` [Compound I-1, (S)—N-(4-((3-chloro-4-fluorophenyl)amino)-7-((tetrahydrofuran-3-yl)oxy)quinazolin-6-yl)-2,3,4,5-tetrafluoro-6-(trifluoromethyl)benzenesulfonamide], the remaining activity at 1 µM on BMX is 50 to 90%; at JAK3 it was 50 to 90%; on FGFR4 it was > 90%; on BTK, 50 to 90%; at EGFR, < 50%. The remaining activity at 10 µM on BMX is 50 to 90%; at JAK3, < 50%; at FGFR4, > 90%; at BTK it was < 50%; at EGFR, < 50%. The IC50 at EGFR (dose response, read-out: EGFR Inhibition IC50) was < 1000 nM.

On to `CS(=O)(=O)c1c(F)c(F)c(F)c(F)c1CNCCn1nc(-c2ccc(Oc3ccccc3)cc2)c2c(N)ncnc21` [Compound I-44, 3-(4-phenoxyphenyl)-1-(2-((2,3,4,5-tetrafluoro-6-(methylsulfonyl)benzyl)amino)ethyl)-1H-pyrazolo[3,4-d]pyrimidin-4-amine], for which the remaining activity at 1 µM is < 50% at BMX; > 90% at JAK3; > 90% on FGFR4; < 50% on BTK; > 90% on EGFR. Besides, the remaining activity at 10 µM at BMX, on JAK3, at FGFR4, on BTK and at EGFR was < 50% in each case.

With `COCCOc1ccc(Nc2ncc(F)c(Nc3cccc(NS(=O)(=O)c4c(F)c(F)c(F)c(F)c4CF)c3)n2)cc1` [Compound I-58, 2,3,4,5-tetrafluoro-N-(3-((5-fluoro-2-((4-(2-methoxyethoxy)phenyl)amino)pyrimidin-4-yl)amino)phenyl)-6-(fluoromethyl)benzenesulfonamide], the remaining activity at 1 µM on BMX is < 50%; on JAK3 it was > 90%; on FGFR4, < 50%; at BTK it was < 50%; at EGFR, > 90%. Besides, the remaining activity at 10 µM on BMX was < 50%; on JAK3, < 50%; at FGFR4 it was < 50%; on BTK, < 50%; on EGFR it was > 90%. Besides, on FGFR4, the concentration for half-maximal inhibition (IC50) is < 1000 nM.

For the molecule `CN(CCn1nc(-c2ccc(Oc3ccccc3)cc2)c2c(N)ncnc21)c1c(F)c(F)c(F)c(F)c1S(C)(=O)=O` [Compound I-43, 1-(2-(methyl(2,3,4,5-tetrafluoro-6-(methylsulfonyl)phenyl)amino)ethyl)-3-(4-phenoxyphenyl)-1H-pyrazolo[3,4-d]pyrimidin-4-amine], the remaining activity at 1 µM is 50 to 90% on BMX; > 90% on JAK3; > 90% at FGFR4; > 90% at BTK; > 90% at EGFR. Further, the remaining activity at 10 µM at BMX is > 90%; on JAK3, > 90%; at FGFR4 it was > 90%; on BTK, > 90%; at EGFR it was 50 to 90%.

One may read the IC50 as the concentration at which inhibition is half-maximal. As a reminder, the remaining activity is the share of the control activity or signal that is left under treatment.
